Laboratory results published in ChEMBL document CHEMBL5303573, “Mapping human microbiome drug metabolism by gut bacteria and their genes” (Nature, 2019).

Experiments:
[1] = anaerostipes sp., 12 h, 2 µM
Description: The drug is tested on Anaerostipes sp. strain: fecal isolate for biotransformation. The drug concentrations were measured before and after a 12-h incubation by liquid-chromatography-coupled mass spectrometry (LC–MS)

[2] = bacteroides thetaiotaomicron, 12 h, 2 µM
Description: The drug is tested on Bacteroides thetaiotaomicron strain: 3731 for biotransformation. The drug concentrations were measured before and after a 12-h incubation by liquid-chromatography-coupled mass spectrometry (LC–MS)

[3] = The drug is tested on Providencia stuartii strain: ATCC25827 for biotransformation. The drug concentrations were measured before and after a 12-h incubation by liquid-chromatography-coupled mass spectrometry (LC–MS); conditions: 2 µM
[4] = bacteroides fragilis, 12 h, 2 µM
Description: The drug is tested on Bacteroides fragilis strain: NCTC 9343 for biotransformation. The drug concentrations were measured before and after a 12-h incubation by liquid-chromatography-coupled mass spectrometry (LC–MS)

[5] = The drug is tested on Clostridium sporogenes strain: ATCC15579 for biotransformation. The drug concentrations were measured before and after a 12-h incubation by liquid-chromatography-coupled mass spectrometry (LC–MS); conditions: 2 µM
[6] = The drug is tested on Collinsella intestinalis strain: DSM13280 for biotransformation. The drug concentrations were measured before and after a 12-h incubation by liquid-chromatography-coupled mass spectrometry (LC–MS); conditions: 2 µM
[7] = The drug is tested on Clostridium symbiosum strain: ATCC14940 for biotransformation. The drug concentrations were measured before and after a 12-h incubation by liquid-chromatography-coupled mass spectrometry (LC–MS); conditions: 2 µM
[8] = The drug is tested on Bacteroides fragilis strain: HMW610 for biotransformation. The drug concentrations were measured before and after a 12-h incubation by liquid-chromatography-coupled mass spectrometry (LC–MS); conditions: 2 µM
[9] = The drug is tested on Clostridium sp. strain: fecal isolate for biotransformation. The drug concentrations were measured before and after a 12-h incubation by liquid-chromatography-coupled mass spectrometry (LC–MS); conditions: 2 µM
[10] = segatella copri, 12 h, 2 µM
Description: The drug is tested on Prevotella copri strain: DSM18205 for biotransformation. The drug concentrations were measured before and after a 12-h incubation by liquid-chromatography-coupled mass spectrometry (LC–MS)

[11] = akkermansia muciniphila, 12 h, 2 µM
Description: The drug is tested on Akkermansia muciniphila strain: ATCC BAA-835 for biotransformation. The drug concentrations were measured before and after a 12-h incubation by liquid-chromatography-coupled mass spectrometry (LC–MS)

[12] = The drug is tested on Providencia rettgeri strain: DSM1131 for biotransformation. The drug concentrations were measured before and after a 12-h incubation by liquid-chromatography-coupled mass spectrometry (LC–MS); type: ADME; set-up: dose 2 uM, timepoint 0 vs 12 hours; conditions: 2 µM
[13] = parabacteroides johnsonii, 12 h, 2 µM
Description: The drug is tested on Parabacteroides johnsonii strain: DSM18315 for biotransformation. The drug concentrations were measured before and after a 12-h incubation by liquid-chromatography-coupled mass spectrometry (LC–MS)

[14] = The drug is tested on Dorea formicigenerans strain: ATCC27755 for biotransformation. The drug concentrations were measured before and after a 12-h incubation by liquid-chromatography-coupled mass spectrometry (LC–MS); conditions: 2 µM
[15] = The drug is tested on Bacteroides caccae strain: ATCC43185 for biotransformation. The drug concentrations were measured before and after a 12-h incubation by liquid-chromatography-coupled mass spectrometry (LC–MS); conditions: 2 µM
[16] = The drug is tested on Edwardsiella tarda strain: ATCC23685 for biotransformation. The drug concentrations were measured before and after a 12-h incubation by liquid-chromatography-coupled mass spectrometry (LC–MS); conditions: 2 µM
[17] = The drug is tested on Blautia luti strain: DSM14534 for biotransformation. The drug concentrations were measured before and after a 12-h incubation by liquid-chromatography-coupled mass spectrometry (LC–MS); type: ADME; set-up: dose 2 uM, timepoint 0 vs 12 hours; conditions: 2 µM
[18] = bacteroides fragilis, 12 h, 2 µM; remark: listed apart in the source
Description: The drug is tested on Bacteroides fragilis strain: 3397 (T10) for biotransformation. The drug concentrations were measured before and after a 12-h incubation by liquid-chromatography-coupled mass spectrometry (LC–MS)

[19] = The drug is tested on Ruminococcus torques strain: ATCC27756 for biotransformation. The drug concentrations were measured before and after a 12-h incubation by liquid-chromatography-coupled mass spectrometry (LC–MS); type: ADME; set-up: dose 2 uM, timepoint 0 vs 12 hours; conditions: 2 µM

Measured: Bacterial Biotransformation

CC(=O)SCC(Cc1ccccc1)C(=O)NCC(=O)OCc1ccccc1 (centres undefined) [RACECADOTRIL]
Compound NOT metabolized: [1] | [3] | [6] | [7] | [12]
Compound metabolized: [2] | [4] | [5] | [8] | [9] | [10] | [11] | [13]

CC(C)NCC(O)COc1ccc(COCCOC(C)C)cc1.CC(C)NCC(O)COc1ccc(COCCOC(C)C)cc1.O=C(O)/C=C/C(=O)O (centres undefined) [BISOPROLOL FUMARATE]
not listed: [11]
Compound NOT metabolized: all other assays above

CC(C)NCC(O)COc1ccc(CCOCC2CC2)cc1 (centres undefined) [BETAXOLOL]
not listed: [10] | [13]
Compound NOT metabolized: all other assays above

NS(=O)(=O)c1cc2c(cc1Cl)N=C(CSCc1ccccc1)NS2(=O)=O [BENZTHIAZIDE]
Compound metabolized: [9]
not listed: [3] | [4] | [13] | [19]
Compound NOT metabolized: all other assays above

CN1C(=O)CCS(=O)(=O)C1c1ccc(Cl)cc1 (centres undefined) [CHLORMEZANONE]
Compound metabolized: [9]
not listed: [2] | [12] | [13] | [14] | [17]
Compound NOT metabolized: all other assays above

CC(C)(C#N)c1cc(Cn2cncn2)cc(C(C)(C)C#N)c1 [ANASTROZOLE]
Compound metabolized: [15] | [4] | [5] | [18] | [9] | [10] | [11] | [13]
not listed: [6] | [12]
Compound NOT metabolized: all other assays above

CC(C)NCC(O)COc1ccc(CC(N)=O)cc1 (centres undefined) [ATENOLOL]
not listed: [2] | [8] | [12] | [15] | [18]
Compound NOT metabolized: all other assays above

Clc1cccc(Cl)c1N=C1NCCN1 [CLONIDINE]
Compound metabolized: [2] | [4] | [18]
not listed: [8]
Compound NOT metabolized: all other assays above

CN(C)CCOC(c1ccc(Cl)cc1)c1ccccn1.O=C(O)/C=C\C(=O)O (centres undefined) [CARBINOXAMINE MALEATE]
not listed: [8]
Compound NOT metabolized: all other assays above

CCOc1cc(CC(=O)N[C@@H](CC(C)C)c2ccccc2N2CCCCC2)ccc1C(=O)O [REPAGLINIDE]
Compound metabolized: [7] | [8] | [13]
not listed: [4] | [5] | [15] | [18]
Compound NOT metabolized: all other assays above
